Results reported in patent US12630528B2, “Amino aryl derivative useful as diacylglycerol acyltransferase 2 inhibitor and use thereof” (LG CHEM, LTD., priority 2019, dated 2026).

Molecular target: T1, human DGAT2 (Homo sapiens, UniProt Q96PD7)
T1 construct: FLAG (DYKDDDDK); made in house; host or cells: Sf-21 insect cells (BacPAK baculovirus system); membrane fraction used
T1 sequence (Q96PD7 1-388): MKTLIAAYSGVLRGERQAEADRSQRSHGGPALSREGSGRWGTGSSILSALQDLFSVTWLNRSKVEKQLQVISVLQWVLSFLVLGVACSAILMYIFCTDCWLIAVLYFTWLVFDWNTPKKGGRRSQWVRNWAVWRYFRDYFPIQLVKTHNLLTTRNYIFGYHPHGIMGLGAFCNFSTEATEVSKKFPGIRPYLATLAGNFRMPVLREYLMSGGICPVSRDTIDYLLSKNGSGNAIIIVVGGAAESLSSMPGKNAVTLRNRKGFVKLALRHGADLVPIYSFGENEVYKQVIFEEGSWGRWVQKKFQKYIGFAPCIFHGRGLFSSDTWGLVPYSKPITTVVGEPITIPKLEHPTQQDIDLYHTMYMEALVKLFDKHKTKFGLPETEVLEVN
Assay: DGAT2 enzyme activity inhibition, Phospholipid FlashPlate SPA
Format: biochemical
Settings: recombinant human DGAT2 membrane protein from Sf-21 cells; inhibition of [14C]-TG production; 37° C.
Experimental: In order to prepare the pBacPAK9-DGAT2, which is DGAT2 expression vector, the human DGAT2 gene amplified by polymerase chain reaction (PCR) was cloned into the EcoR1 and Xho1 sites of the pBacPAK9 (clonctech) vector. The nucleotide sequence of the primers used in PCR was the forward primer 5′ […] (SEQ. ID. NO: 2). The composition of the reaction solution was to contain 50 ng of cDNA clone (OriGene), 200 μM of dATP, dCTP, dTTP, dGTP, 200 nM of each primer, 1 unit of Tag DNA Polymerase (Toyobo), 1×PCR buffer, and the final volume was adjusted to 20 μl. The reaction conditions were denatured at 95° C. for 5 minutes, followed by 30 times of 94° C. for 20 seconds, 60° C. for 20 seconds, and 72° C. for 90 seconds, followed by further reaction at 72° C. for 7 minutes.
Recombinant human DGAT2 protein was expressed in Sf-21 cells, which are insect cells, by using the BacPack baculovirus expression system (Clontech). The brief manufacturing process is as follows. First, the pBacPAK9-DGAT2 expression vector was transfected with BacPAK6 virus DNA (Bsu36I digest) into sf21 cells using Bacfectin to prepare a recombinant DGAT2 expressing baculovirus. The thus prepared baculovirus was infected with Sf-21 cells at 10 MOI (multiplicity of infection), and after 72 hours, infected insect cells were collected and membrane proteins were isolated. For membrane protein separation, the cell pellet was dissolved in a sucrose solution containing 250 mM sucrose, 10 mM Tris (pH 7.4), and 1 mM ethylenediamine-tetraacetic acid (EDTA), and then homogenized by using a dounce homogenizer, and the supernatant was taken by centrifuging at 600×g for 15 minutes, and centrifuged at 100,000×g for 1 hour to discard the supernatant, and the remaining pellet was resuspended in 20 mM HEPES buffer (pH 7.4). The prepared DGAT2 overexpressing membrane protein was dispensed in 100 μl and stored at −80° C. until use. Protein concentration was quantified by using the BCA Protein Assay Kit (Thermo Scientific).
In vitro DGAT2 analysis was performed using a Phospholipid Flash Plate (PerkinElmer) based on the principle of SPA (Scintilation Proximity Assay). First, DGAT2 inhibition compounds serially diluted 5 times from 3 nM to 10 μM (final concentration, 1% DMSO) were mixed in a buffer solution containing 2 μg DGAT2-membrane protein and 20 mM HEPES, 20 mM MgCl2, 1 mg/mL BSA, 50 μM 1,2 sn-oleoyl glycerol (Sigma), put in a 96-well flash plate (FlashPlate) and reacted at 37° C. for 20 minutes, and then 1 μM [14C] ole oil CoA (PerkinElmer, NEC651050UC) was added to be a final volume of 100 μL and further reacted at 37° C. for 15 minutes. After the enzymatic reaction was completed, 100 μL of isopropanol was added, the plate was sealed with a film, and the plate was shaken slowly in a plate shaker. The next day, the amplified scintillation signal (cpm) in Topcounter (Packard) was measured to measure the degree of production of [14C]-labeled triacyl glycerol (TG) as a reaction product. The measured value when the compound was not treated was used as a positive control, and the measured value of the compound treated group was calculated as a relative % to measure the inhibition effect of the compound on TG production.

| IC50 [nM] | SMILES |
| --- | --- |
| 240 | CCOc1cccnc1O[C@@H]1CCCN(c2cncc(Nc3ccnc(-c4cccc(CC(C)(C)C(=O)O)c4)n3)n2)C1 [Example 171, (R)-3-(3-(4-((6-(3-((3-ethoxypyridin-2-yl)oxy)piperidin-1-yl)pyrazin-2-yl)amino)pyrimidin-2-yl)phenyl)-2,2-dimethylpropanoic Acid] |
| 7200 | CCOc1ccccc1O[C@@H]1CCCN(c2cncc(Nc3cccc(C(C)(C)C(=O)O)n3)n2)C1 [Example 50, (R)-2-(6-((6-(3-(2-ethoxyphenoxy)piperidin-1-yl)pyrazin-2-yl)amino)pyridin-2-yl)-2-methylpropanoic Acid] |
| 3400 | CCOc1ccccc1O[C@@H]1CCCN(c2cncc(Nc3nc4cc(CC(=O)O)ccc4o3)n2)C1 [Example 12, (R)-2-(2-((6-(3-(2-ethoxyphenoxy)piperidin-1-yl)pyrazin-2-yl)amino)benzo[d]oxazol-5-yl)acetic Acid] |
| 200 | CCOc1ccccc1O[C@@H]1CCCN(c2cncc(Nc3nccc(-c4ccc(C(C)(C)C(=O)O)cc4)n3)n2)C1 [Example 143, (R)-2-(4-(2-((6-(3-(2-ethoxyphenoxy)piperidin-1-yl)pyrazin-2-yl)amino)pyrimidin-4-yl)phenyl)-2-methylpropanoic Acid] |
| 7300 | CCOc1ccccc1O[C@@H]1CCCN(c2cncc(Nc3nc4cc(/C=C/C(=O)O)ccc4o3)n2)C1 [Example 15, (R,E)-3-(2-((6-(3-(2-ethoxyphenoxy)piperidin-1-yl)pyrazin-2-yl)amino)benzo[d]oxazol-5-yl)acrylic Acid] |
| 5500 | CCOc1ccccc1O[C@@H]1CCCN(c2cncc(Nc3ccccc3)n2)C1 [Example 24, (R)—N-6-(3-(2-ethoxyphenoxy)piperidin-1-yl)-N-phenylpyrazin-2-amine] |
| 1200 | CCOc1ccccc1O[C@@H]1CCCN(c2ccnc(Nc3nccc(-c4cccc(CC(C)(C)C(=O)O)c4)n3)n2)C1 [Example 150, (R)-3-(3-(2-((4-(3-(2-ethoxyphenoxy)piperidin-1-yl)pyrimidin-2-yl)amino)pyrimidin-4-yl)phenyl)-2,2-dimethylpropanoic Acid] |
| 260 | CCOc1ccccc1O[C@@H]1CCCN(c2cncc(Nc3nc(-c4cc(CC(C)(C)C(=O)O)ccc4F)ccc3F)n2)C1 [Example 107, (R)-3-(3-(6-((6-(3-(2-ethoxyphenoxy)piperidin-1-yl)pyrazin-2-yl)amino)-5-fluoropyridin-2-yl)-4-fluorophenyl)-2,2-dimethylpropanoic Acid] |
| 1500 | CCOc1ccccc1O[C@@H]1CCCN(c2cncc(Nc3ccc(C(F)(F)F)c(-c4ccc(C(C)(C)C(=O)O)cc4)n3)n2)C1 [Example 109, (R)-2-(4-(6-((6-(3-(2-ethoxyphenoxy)piperidin-1-yl)pyrazin-2-yl)amino)-3-(trifluoromethyl)pyridin-2-yl)phenyl)-2-methylpropanoic Acid] |
| 300 | CCOc1ccccc1O[C@@H]1CCCN(c2ccnc(Nc3cccc(-c4ccc(NCC(=O)O)cc4)n3)n2)C1 [Example 76] |
| 890 | CCOc1ccccc1O[C@@H]1CCCN(c2cncc(Nc3cccc(-c4ccc(NCC(=O)O)cc4)n3)n2)C1 [Example 73, (R)-(4-(6-((6-(3-(2-ethoxyphenoxy)piperidin-1-yl)pyrazin-2-yl)amino)pyridin-2-yl)phenyl)glycine] |
| 500 | CCOc1ccccc1O[C@@H]1CCCN(c2cncc(Nc3cccc(Oc4cccc(C(=O)O)c4)n3)n2)C1 [Example 87, (R)-3-((6-((6-(3-(2-ethoxyphenoxy)piperidin-1-yl)pyrazin-2-yl)amino)pyridin-2-yl)oxy)benzoic Acid] |
| 400 | CCOc1ccccc1O[C@@H]1CCCN(c2cncc(Nc3cccc(-c4cc(OC(C)(C)C(=O)O)ccc4F)n3)n2)C1 [Example 84, (R)-2-(3-(6-((6-(3-(2-ethoxyphenoxy)piperidin-1-yl)pyrazin-2-yl)amino)pyridin-2-yl)-4-fluorophenoxy)-2-methylpropanoic Acid] |
| 6100 | CCOc1ccccc1O[C@@H]1CCCN(c2cncc(Nc3nccc(N4CCCC(C)(C(=O)O)C4)n3)n2)C1 (stereo partly drawn) [Example 122, 1-(2-((6-((R)-3-(2-ethoxyphenoxy)piperidin-1-yl)pyrazin-2-yl)amino)pyrimidin-4-yl)-3-methylpiperidine-3-carboxylic Acid] |
| 550 | CCOc1ccccc1O[C@@H]1CCCN(c2nccc(Nc3nccc(-c4ccc(CC(C)(C)C(=O)O)cc4)n3)n2)C1 [Example 155, (R)-3-(4-(2-((2-(3-(2-ethoxyphenoxy)piperidin-1-yl)pyrimidin-4-yl)amino)pyrimidin-4-yl)phenyl)-2,2-dimethylpropanoic Acid] |
| 220 | CCOc1cccnc1O[C@@H]1CCCN(c2cncc(Nc3ccnc(-c4ccc(CC(C)(C)C(=O)O)cc4)n3)n2)C1 [Example 173, (R)-3-(4-(4-((6-(3-((3-ethoxypyridin-2-yl)oxy)piperidin-1-yl)pyrazin-2-yl)amino)pyrimidin-2-yl)phenyl)-2,2-dimethylpropanoic Acid] |
| 170 | CCOc1ccccc1O[C@@H]1CCCN(c2cncc(Nc3cccc(Oc4ccc(C(C)(C)C(=O)O)cc4)n3)n2)C1 [Example 93, (R)-2-(4-((6-((6-(3-(2-ethoxyphenoxy)piperidin-1-yl)pyrazin-2-yl)amino)pyridin-2-yl)oxy)phenyl)-2-methylpropanoic Acid] |
| 250 | CCOc1ccccc1O[C@@H]1CCCN(c2cncc(Nc3nc4ccccc4o3)n2)C1 [Example 10, (R)—N-(6-(3-(2-ethoxyphenoxy)piperidin-1-yl)pyrazin-2-yl)benzo[d]oxazol-2-amine] |
| 490 | CCOc1cccnc1O[C@@H]1CCCN(c2cncc(Nc3cccc(Oc4ccc(CC(=O)O)cc4)n3)n2)C1 [Example 98, (R)-2-(4-((6-((6-(3-((3-ethoxypyridin-2-yl)oxy)piperidin-1-yl)pyrazin-2-yl)amino)pyridin-2-yl)oxy)phenyl)acetic Acid] |
| 6400 | CCOc1ccccc1O[C@@H]1CCCN(c2cncc(Nc3cccc(C(C)(C)C(=O)O)c3)n2)C1 [Example 29, (R)-2-(3-((6-(3-(2-ethoxyphenoxy)piperidin-1-yl)pyrazin-2-yl)amino)phenyl)-2-methylpropanoic Acid] |
| 800 | CCOc1ccccc1O[C@@H]1CCCN(c2cncc(Nc3nccc(N4CCC(C(C)(C)C(=O)O)CC4)n3)n2)C1 [Example 126, (R)-2-(1-(2-((6-(3-(2-ethoxyphenoxy)piperidin-1-yl)pyrazin-2-yl)amino)pyrimidin-4-yl)piperidin-4-yl)-2-methylpropanoic Acid] |
| > 10000 | CCOc1ccccc1O[C@@H]1CCCN(c2cncc(Nc3nc4cc(CCC(=O)O)ccc4o3)n2)C1 [Example 16, (R)-3-(2-((6-(3-(2-ethoxyphenoxy)piperidin-1-yl)pyrazin-2-yl)amino)benzo[d]oxazol-5-yl)propanoic Acid] |
| 1700 | CCOc1ccccc1O[C@@H]1CCCN(c2cncc(Nc3nccc(-c4cccc(CCC(=O)O)c4)n3)n2)C1 [Example 145, (R)-3-(3-(2-((6-(3-(2-ethoxyphenoxy)piperidin-1-yl)pyrazin-2-yl)amino)pyrimidin-4-yl)phenyl)propanoic Acid] |
